Source: ChEMBL document CHEMBL1201862, “PubChem BioAssay data set” (2004)
Blank lines part the entries; values can stand above or below the molecule they belong to. The source made the active and inactive calls.

Key:
Candida albicans = test: growth inhibition of resistant C. albicans, dose response, CaCi-8 strain, fluconazole, dry powder, set 4 (AID 488950); type: functional, organism-based
HEK293 [1] = test: cytotoxicity in HEK293T NF-kB-Luc cells, SAR follow-up, cytotoxicity control for NF-kB activator project, cell-based, resazurin fluorescence (AID 493251); type: functional; conditions: Homo sapiens
Jurkat = test: SAR Analysis of small molecule inhibitors of T-cell specific antigen receptor-induced NF-kB activation in a Jurkat cell line using a luminescence assay - Set 2. [Related pubchem assays (depositor defined):AID435003, AID435012, AID465]; type: functional, cell-based; conditions: Homo sapiens
HEK293 [2] = test: SAR Analysis of small molecule inhibitors of T-cell specific antigen receptor-induced NF-kB activation in a HEK-293T cell line using a luminescence assay - Set 2. [Related pubchem assays (depositor defined):AID435003, AID435012, AID489026]; type: functional, cell-based; conditions: Homo sapiens
[3] = biological target: T1, Short transient receptor potential channel 4 (Mus musculus, UniProt Q9QUQ5); test: mouse TRPC4 channel inhibitors, dose response, cell-based, HEK293 TRPC4/mu-opioid, Fluo-4 calcium (AID 434942); type: functional;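 further: potency of inhibitors blocking the TRPC4 calcium response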
T1 sequence (Q9QUQ5 whole entry): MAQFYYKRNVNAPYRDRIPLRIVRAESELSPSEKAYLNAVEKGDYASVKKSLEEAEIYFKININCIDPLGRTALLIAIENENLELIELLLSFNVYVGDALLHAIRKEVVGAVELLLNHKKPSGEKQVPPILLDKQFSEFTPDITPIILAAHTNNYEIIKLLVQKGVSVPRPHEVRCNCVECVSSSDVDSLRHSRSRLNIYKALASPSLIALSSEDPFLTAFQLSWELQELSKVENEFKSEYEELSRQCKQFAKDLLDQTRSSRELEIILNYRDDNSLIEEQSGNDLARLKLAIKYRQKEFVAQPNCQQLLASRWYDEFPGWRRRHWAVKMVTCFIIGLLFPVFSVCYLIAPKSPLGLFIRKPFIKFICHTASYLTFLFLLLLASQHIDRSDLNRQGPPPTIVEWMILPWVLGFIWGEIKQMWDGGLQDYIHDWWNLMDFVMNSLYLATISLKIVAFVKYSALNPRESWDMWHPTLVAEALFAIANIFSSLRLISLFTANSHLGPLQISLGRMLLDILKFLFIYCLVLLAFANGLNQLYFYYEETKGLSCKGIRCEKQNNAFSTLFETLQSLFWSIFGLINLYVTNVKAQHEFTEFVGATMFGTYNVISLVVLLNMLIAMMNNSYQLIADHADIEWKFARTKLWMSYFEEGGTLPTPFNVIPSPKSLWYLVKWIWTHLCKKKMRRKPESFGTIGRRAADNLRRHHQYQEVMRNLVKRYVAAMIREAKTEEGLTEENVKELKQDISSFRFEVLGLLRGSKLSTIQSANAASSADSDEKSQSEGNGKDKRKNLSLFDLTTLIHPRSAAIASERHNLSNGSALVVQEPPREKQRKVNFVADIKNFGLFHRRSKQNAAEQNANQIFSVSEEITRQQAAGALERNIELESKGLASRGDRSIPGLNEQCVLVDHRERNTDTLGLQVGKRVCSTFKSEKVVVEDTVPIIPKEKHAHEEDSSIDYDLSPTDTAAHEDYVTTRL

[4] = biological target: T1, Short transient receptor potential channel 4; test: SAR Analysis for the identification of selective inhibits of the transient receptor potential cation channel C4 (TRPC4): Automated Electrophysiology. [Related pubchem assays (depositor defined):AID2256]; type: functional
[5] = biological target: T1, Short transient receptor potential channel 4; test: TRPC4 inhibition under acetylcholine activation, SAR follow-up, cell-based, acetylcholine stimulus, HEK293 TRPC4, Fluo-4 (AID 492996); type: functional
[6] = biological target: T1, Short transient receptor potential channel 4; test: SAR Analysis for the identification of selective inhibitors of the transient receptor potential cation channel C4 (TRPC4): TRPC4 Serotonin Receptor CRC MPD assay. [Related pubchem assays (depositor defined):AID2247, AID2256]; type: functional
[7] = biological target: T1, Short transient receptor potential channel 4; test: TRPC4 inhibitor concentration-response, dose response, cell-based, HEK293 TRPC4/mu-opioid, DAMGO stimulus, Fluo-4 (AID 492994); type: functional
[8] = biological target: T2, Beta-2 adrenergic receptor (Homo sapiens, UniProt P07550); test: beta2AR agonists driving receptor internalization, dose response, cell-based, FAP fluorogen, flow cytometry, cherry pick 1 (AID 588763); type: functional
[9] = biological target: T2, Beta-2 adrenergic receptor; test: Dose response for HTS for Beta-2AR agonists via FAP method from Powderset3.; type: functional

T2 sequence (P07550 whole entry): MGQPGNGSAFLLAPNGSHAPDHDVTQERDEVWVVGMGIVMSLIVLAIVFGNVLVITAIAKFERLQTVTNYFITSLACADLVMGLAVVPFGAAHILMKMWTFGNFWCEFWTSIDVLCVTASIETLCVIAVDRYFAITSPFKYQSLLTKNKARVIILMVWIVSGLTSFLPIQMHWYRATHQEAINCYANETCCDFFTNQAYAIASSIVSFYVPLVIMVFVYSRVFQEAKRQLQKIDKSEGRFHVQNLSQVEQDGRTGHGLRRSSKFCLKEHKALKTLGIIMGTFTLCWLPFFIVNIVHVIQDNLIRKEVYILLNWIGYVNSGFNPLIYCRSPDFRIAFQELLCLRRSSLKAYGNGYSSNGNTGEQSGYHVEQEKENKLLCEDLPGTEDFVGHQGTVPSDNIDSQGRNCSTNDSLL

Structure (SMILES): O=C(c1ccc(Cl)cc1)N1CCN(c2ccnc3ccccc23)CC1
AC50 (Candida albicans): 9810 nM (active)

Structure (SMILES): COc1ccc(C(NC(=O)CCc2ccccc2)c2ccc3cccnc3c2O)cc1 (stereo unspecified)
IC50 (HEK293 [1]): 22500 nM (inactive)
IC50 (Jurkat): 2520 nM (active)
IC50 (HEK293 [2]): 2300 nM (active)

EC50 [3]: 2.7 nM (active)
IC50 [4]: 2630 nM (active)
IC50 [5]: 1230 nM (active)
IC50 [6]: 2240 nM (active)
IC50 [7]: 820 nM (active)
Structure (SMILES): Cc1cc(N2CCCCC2)nc2ccccc12

EC50 [8]: 973 nM (active)
EC50 [9]: 88.3 nM (active)
Structure (SMILES): CC(Oc1ccc(Cl)cc1Cl)c1nc(-c2ccc(NC(=O)c3ccccn3)cc2)no1 (stereo unspecified)
